Test results from patent US20250059610A1, “METHODS OF TREATING TUMOR” (priority 2017, published 2025).

Legend:
[1] = system: recurrent small cell lung cancer (SCLC); test: Clinical trial of nivolumab alone or with ipilimumab in SCLC, exploratory TMB analysis; assay type: in vivo, human
Text: Subjects were selects who had previously been diagnosed with SCLC, and who had previously received at least one prior platinum-containing regimen (FIG. 23).
The primary objective was to measure the objective response rate (ORR) by per RECIST v1.1. Secondary objectives included monitoring safety, overall survival (OS), progression free survival (PFS), and duration of response (DOR). Prespecified exploratory objectives included biomarker analysis and health status using the EQ-5D instrument.
TMB was determined by whole exome sequencing, using an Illumina HiSeq 2500 using 2×100-bp paired-end reads, and calculated as the total number of nonsynonymous missense mutations in the tumor. For exploratory analyses, patients were divided into 3 subgroups based on TMB tertile.

PD-1 = biological target: T1, PD-1 (Homo sapiens, UniProt Q15116); conditions: across all doses, 0.3 mg/kg to 10 mg/kg; cited from earlier work
T1 construct: PD-1 occupancy appears to be dose-independent in this dose range
T1 sequence (Q15116 25-288): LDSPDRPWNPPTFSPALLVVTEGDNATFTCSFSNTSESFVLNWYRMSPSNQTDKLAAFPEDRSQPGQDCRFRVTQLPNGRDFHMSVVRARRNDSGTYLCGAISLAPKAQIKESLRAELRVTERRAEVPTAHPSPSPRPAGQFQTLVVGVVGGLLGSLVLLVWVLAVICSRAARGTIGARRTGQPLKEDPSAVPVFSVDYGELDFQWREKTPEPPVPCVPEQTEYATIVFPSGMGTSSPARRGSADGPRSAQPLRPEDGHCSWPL

[2] = system: stage IV or recurrent NSCLC; test: Multi-part phase 3 study of first-line nivolumab plus ipilimumab versus chemotherapy: efficacy; assay type: in vivo, human
Text: Patients had chemotherapy-naive, stage IV or recurrent NSCLC.
Adult patients with PD-L1-histologically confirmed squamous or nonsquamous stage IV/recurrent NSCLC and Eastern Cooperative Oncology Group (ECOG) performance status (Oken M. M., et al. Am J Clin Oncol 5:649-55 (1982)) of 0 or 1 who had received no prior systemic anticancer therapy as primary therapy for advanced or metastatic disease were eligible for the study. All patients underwent imaging to screen for brain metastases. Patients with known EGFR mutations or ALK translocations sensitive to targeted therapy, an autoimmune disease, or untreated central nervous system metastases were excluded.
All treatments continued until disease progression, unacceptable toxicity, or completion per protocol (up to 2 years for immunotherapy). Crossover between treatment arms within the study was not permitted.
Part 1 of this study had two co-primary endpoints.
Hazard ratios of PFS with associated two-sided confidence intervals were estimated using an unstratified Cox proportional hazard model, with treatment group as a single covariate. A multivariate analysis was prespecified in patients with TMB≥10 mutations/Mb to assess the influence of known prognostic baseline factors on PFS. […] Survival curves were estimated using Kaplan-Meier methodology.

[3] = Phase 3 study of first-line nivolumab versus platinum-based chemotherapy: safety (adverse events)
Experimental: (§1) Maintenance pemetrexed was allowed in patients with nonsquamous NSCLC who had stable disease or response after cycle 4. […] Concomitant systemic corticosteroid treatment (<3-week courses) was allowed for non-autoimmune conditions, including but not limited to treatment-related adverse events (AEs) with a potential immunologic cause.
(§2) Tumor response was assessed every 6 weeks until week 48 and every 12 weeks thereafter. Safety assessments included the recording of AEs, graded according to the National Cancer Institute Common Terminology Criteria for Adverse Events, version 4.0.

NSCLC = conditions: cited from earlier work
[4] = monotherapy, every two weeks; cited from earlier work
[5] = system: stage IV or recurrent NSCLC; test: Phase 3 study of first-line nivolumab versus platinum-based chemotherapy: efficacy; assay type: in vivo, human
Text: The primary endpoint was progression-free survival (PFS) per blinded independent central review in patients with ≥5% PD-L1 expression.
Eligible adult patients had histologically confirmed squamous or nonsquamous stage IV/recurrent NSCLC, ECOG PS 0-1, and measurable disease per RECIST 1.1,^15 and had received no prior systemic anticancer therapy as primary therapy for advanced or metastatic disease. Patients with central nervous system metastases were eligible if adequately treated and neurologically returned to baseline ≥2 weeks before randomization. Eligible patients had to be off corticosteroids or on a stable or decreasing dose of ≤10 mg daily prednisone (or equivalent). […] Patients with an autoimmune disease or known EGFR mutations or ALK translocations sensitive to available targeted therapy were excluded. Only patients with ≥1% PD-L1 expression were randomized.
as §1
Randomization was stratified by PD-L1 expression (<5% vs. ≥5%) and tumor histology (squamous vs. nonsquamous).
The primary endpoint was PFS based on assessment by blinded independent central review (BICR) in patients with ≥5% PD-L1 expression. Secondary endpoints included PFS per BICR among all randomized patients (≥1% PD-L1 expression), OS among patients with ≥5% PD-L1 expression and among all randomized patients, and ORR per BICR among patients with ≥5% PD-L1 expression.
as §2
For efficacy analyses, patients were grouped according to TMB tertile distribution.
Comparison of PFS and OS between treatment groups was performed by two-sided log-rank tests stratified by PD-L1 expression level (≥5% vs. <5%; for endpoints in all randomized patients) and tumor histology. A stratified Cox proportional-hazards model including the randomized treatment arm as a single covariate was used to estimate HRs and their associated 95% CIs. The Kaplan-Meier method was used to estimate survival curves. ORRs were compared between treatment arms with a two-sided, stratified Cochran-Mantel-Haenszel test. The Clopper-Pearson method was used to estimate ORRs and their exact 95% CIs.

[6] = 10 patients with ≥5% PD-L1 expression, monotherapy cohort

For Nivolumab, which ORR ([1]; ITT patients) is on record?
Its ORR is 11.4%.

What about the ORR ([1]; TMB-evaluable patients) of the same substance?
The ORR was 11.3%.

And the ORR ([1]; high TMB)?
Its ORR is “about 21.3%”.

And the “OS at 1 year” value ([1]; high TMB)?
Its value is 35.2%.

And the “PFS at 1 year” value ([1]; high TMB)?
The value was 21.2%.

And the “average PFS” value ([1]; high TMB)?
Its value is “about 1.4%”.

And the “median OS” value ([1]; high TMB)?
Its value is “about 5.4%”.

What about the “patients with overall survival over 2 years” value ([1]; initial results of the SCLC trial) of the same substance?
The value was 14%.

And the ORR ([1]; low TMB)?
The ORR was “about 4.8%”.

And the “OS at 1 year” value ([1]; low TMB)?
The value was 22.1%.

What about the “average PFS” value ([1]; low TMB) of the same substance?
Its value is “about 1.3%”.

And the “median OS” value ([1]; low TMB)?
Its value is “about 3.1%”.

And the ORR ([1]; medium TMB)?
Its ORR is “about 6.8%”.

And the “OS at 1 year” value ([1]; medium TMB)?
Its value is “about 26.0%”.

And the “PFS at 1 year” value ([1]; medium TMB)?
Its value is 3.15%.

What about the “average PFS” value ([1]; medium TMB) of the same substance?
The value was “about 1.3%”.

And the “median OS” value ([1]; medium TMB)?
The value was “about 3.9%”.

And the “mean PD-1 occupancy rate” value (PD-1)?
Its value is 85%.

What about the “mean plateau PD-1 occupancy” value (PD-1) of the same substance?
The value was 72%.

What about the “median PFS” value ([2]; TMB≥10 mutations/Mb and ≥1% PD-L1 expression) of the same substance?
Its value is 4.2 months.

What about the “median PFS” value ([2]; TMB≥13 mutations/Mb and ≥1% PD-L1 expression) of the same substance?
The value was 4.2 months.

What about the “Treatment-related adverse events: Any event” value ([3]; Grade 3-4) of the same substance?
The value was 47 (17.6) n (%).

And the “Not continuing in the treatment period: Study drug toxicity” value ([3]; in vivo)?
The value was 27 (10.1) n (%).

What about the “Treatment-related AEs leading to discontinuation of study drug” value ([3]; in vivo) of the same substance?
The value was 9.7%.

And the “Treatment-related adverse events leading to discontinuation: Adrenal insufficiency” value ([3]; in vivo)?
Its value is 1 (0.4) n (%).

What about the “Treatment-related adverse events leading to discontinuation: Alanine aminotransferase increased” value ([3]; in vivo) of the same substance?
The value was 5 (1.9) n (%).

What about the “Treatment-related adverse events leading to discontinuation: Aphasia” value ([3]; in vivo) of the same substance?
Its value is 1 (0.4) n (%).

What about the “Treatment-related adverse events leading to discontinuation: Aspartate aminotransferase increased” value ([3]; in vivo) of the same substance?
Its value is 5 (1.9) n (%).

What about the “Treatment-related adverse events leading to discontinuation: Cholestasis” value ([3]; in vivo) of the same substance?
The value was 1 (0.4) n (%).

What about the “Treatment-related adverse events leading to discontinuation: Colitis” value ([3]; in vivo) of the same substance?
Its value is 2 (0.7) n (%).

And the “Treatment-related adverse events leading to discontinuation: Confused state” value ([3]; in vivo)?
Its value is 1 (0.4) n (%).

And the “Treatment-related adverse events leading to discontinuation: Hypersensitivity” value ([3]; in vivo)?
The value was 1 (0.4) n (%).

What about the “Treatment-related adverse events leading to discontinuation: Interstitial lung disease” value ([3]; in vivo) of the same substance?
Its value is 1 (0.4) n (%).

And the “Treatment-related adverse events leading to discontinuation: Multiple organ dysfunction” value ([3]; in vivo)?
Its value is 1 (0.4) n (%).

What about the “Treatment-related adverse events leading to discontinuation: Nausea” value ([3]; in vivo) of the same substance?
The value was 1 (0.4) n (%).

And the “Treatment-related adverse events leading to discontinuation: Pericardial effusion malignant” value ([3]; in vivo)?
The value was 1 (0.4) n (%).

What about the “Treatment-related adverse events leading to discontinuation: Pneumonitis” value ([3]; in vivo) of the same substance?
The value was 3 (1.1) n (%).

What about the “Treatment-related adverse events leading to discontinuation: Rash” value ([3]; in vivo) of the same substance?
The value was 1 (0.4) n (%).

What about the “Treatment-related adverse events leading to discontinuation: Rash maculopapular” value ([3]; in vivo) of the same substance?
Its value is 1 (0.4) n (%).

And the “Treatment-related adverse events leading to discontinuation: Rash papular” value ([3]; in vivo)?
Its value is 1 (0.4) n (%).

And the “Treatment-related adverse events leading to discontinuation: Stevens-Johnson syndrome” value ([3]; in vivo)?
Its value is 1 (0.4) n (%).

And the “Treatment-related adverse events leading to discontinuation: Transaminases increased” value ([3]; in vivo)?
Its value is 1 (0.4) n (%).

What about the “Treatment-related adverse events: Any event” value ([3]; in vivo) of the same substance?
The value was 190 (71.2) n (%).

What about the “Treatment-related adverse events: Leukopenia” value ([3]; in vivo) of the same substance?
The value was 0 n (%).

What about the “Treatment-related adverse events: Neutropenia” value ([3]; in vivo) of the same substance?
The value was 0 n (%).

What about the “Treatment-related adverse events: Neutrophil count decreased” value ([3]; in vivo) of the same substance?
The value was 1 (0.4) n (%).

What about the “Treatment-related serious adverse events: Anemia” value ([3]; in vivo) of the same substance?
Its value is 0 n (%).

And the “Treatment-related serious adverse events: Aspartate aminotransferase increased” value ([3]; in vivo)?
The value was 6 (2.2) n (%).

And the “Treatment-related serious adverse events: Febrile neutropenia” value ([3]; in vivo)?
Its value is 0 n (%).

What about the “Treatment-related serious adverse events: Thrombocytopenia” value ([3]; in vivo) of the same substance?
The value was 0 n (%).

And the “PFS rate at 24 weeks” value (NSCLC; [6])?
The value was 70%.

And the “median PFS” value (NSCLC; [6])?
The value was 10.6 months.

What about the “objective response rate (ORR)” value (NSCLC; [6]) of the same substance?
The value was 50%.

What about the ORR (NSCLC; patients with ≥1% PD-L1 expression) of the same substance?
The ORR was 28%.

What about the “maximum tolerated dose (MTD), not reached up to” value [4] of the same substance?
The value was > 10 mg/kg.

What about the “Complete or partial response” value ([5]; TMB High) of the same substance?
Its value is 22 (46.8) n (%).

And the Progressive disease ([5]; TMB High)?
Its Progressive disease is 7 (14.9) n (%).

And the “Response could not be determined” value ([5]; TMB High)?
The value was 3 (6.4) n (%).

What about the Stable disease ([5]; TMB High) of the same substance?
Its Stable disease is 15 (31.9) n (%).

And the “Complete or partial response” value ([5]; TMB Low)?
Its value is 11 (17.7) n (%).

What about the Progressive disease ([5]; TMB Low) of the same substance?
The Progressive disease was 21 (33.9) n (%).

What about the “Response could not be determined” value ([5]; TMB Low) of the same substance?
Its value is 5 (8.1) n (%).

And the Stable disease ([5]; TMB Low)?
Its Stable disease is 25 (40.3) n (%).

And the “Complete or partial response” value ([5]; TMB Low/medium (pooled))?
The value was 25 (22.5) n (%).

And the Progressive disease ([5]; TMB Low/medium (pooled))?
The Progressive disease was 32 (28.9) n (%).

What about the “Response could not be determined” value ([5]; TMB Low/medium (pooled)) of the same substance?
The value was 9 (8.1) n (%).

What about the Stable disease ([5]; TMB Low/medium (pooled)) of the same substance?
The Stable disease was 45 (40.5) n (%).

And the “Complete or partial response” value ([5]; TMB Medium)?
Its value is 14 (28.6) n (%).

And the Progressive disease ([5]; TMB Medium)?
The Progressive disease was 11 (22.4) n (%).
